Data: US20120065267A1, “COMPOSITIONS INCLUDING 3,5-L-T2 AND METHODS OF USE THEREOF” (priority 2010, published 2012)
Where “and” joins values, the source holds several entries; their conditions need not be identical. Equal entries are not always repeated.

How the values were obtained:
[1] = Body weight of mice on Western Diet given low or high dose T2; format: in vivo
Method: (§1) This corresponds to a dosage for an 80 kg human of about 20-200 mg/day, or a low dose of about 0.2-0.3 mg/kg of body weight to a high dose of about 2-3 mg/kg of body weight. One will appreciate, however, that some subjects (e.g., subjects having very low LDL receptor function) may receive higher doses, depending on need. likewise, some subjects may receive lower doses, which again depends on need. Mice in the study were fed a standard lab chow referred to as the “Western Diet.” The overall level of fat and the saturated nature of the fat are representative diets typical in the industrialized west that are linked to risk of cardiovascular disease in humans. The formula is used primarily with genetically manipulated rodent models that are susceptible to high cholesterol and cardiovascular disease. The diet may also be useful in diet-induced obesity, diabetes, and metabolic syndrome models. High cholesterol, obesity, and diabetes are each associated increased risk for cardiovascular disease. The composition of the Western Diet is shown below. C57 is a wild-type strain, LDLr+/− are a strain carrying one functional copy of the LDLr gene, and the LDLr0 animals are total LDLr knockouts. The LDLr gene encodes for the LDL receptor protein, which is responsible for scavenging LDL with bound cholesterol from the blood and transporting it into cells. Both heterozygous and homozygous LDLr knockout animals develop very high serum cholesterol levels and are considered to be a good model for heterozygous and homozygous familial hypercholesterolemia in humans. […] LDLr knockout animals have zero LDL receptor function.

[2] = tested on: C57, LDLr+/− and LDLr0 mice; experiment: Serum cholesterol in mice on Western Diet given daily oral T2; format: in vivo; design: Cholesterol / Cholesterol (Ave): unit not given here; conditions: for lowered cholesterol, average: vs vehicle; for Cholesterol (Ave): group average; for Cholesterol: individual animal
Method: as §1

TR β gene expression = conditions: relative to T3; cited from earlier work
rats = conditions: 250 mcg/kg p.o. q.d. for 30 days, cited from earlier work

Q: For N[C@@H](Cc1cc(I)c(Oc2ccc(O)cc2)c(I)c1)C(=O)O [T2, (2S)-2-amino-3-[4-(4-hydroxyphenoxy)-3,5-diiodophenyl]propanoic acid], which Body weight (Ave) ([1]; LDLr0 mice, Low Dose T2 0.25 mg/kg daily oral, Day 5, group average) is on record?
A: 22.4 g

Q: And the Body weight ([1]; LDLr0 mice, Low Dose T2 0.25 mg/kg daily oral, Day 5, individual animal, 0.25 mg/kg, in g (unit assumed))?
A: 22.0 and 22.2 and 23.0

Q: And the Body weight (Ave) ([1]; LDLr0 mice, Low Dose T2 0.25 mg/kg daily oral, Day 6, group average)?
A: 22.3 g

Q: And the Body weight ([1]; LDLr0 mice, Low Dose T2 0.25 mg/kg daily oral, Day 6, individual animal, 0.25 mg/kg, in g (unit assumed))?
A: 22.1 and 21.7 and 23.1

Q: And the Body weight (Ave) ([1]; LDLr0 mice, Low Dose T2 0.25 mg/kg daily oral, Day 7, group average)?
A: 22.2 g

Q: What about the Body weight ([1]; LDLr0 mice, Low Dose T2 0.25 mg/kg daily oral, Day 7, individual animal, 0.25 mg/kg, in g (unit assumed)) of the same compound?
A: 22.4 and 20.6 and 23.6

Q: And the Body weight (Ave) ([1]; LDLr+/− mice, High Dose T2 2.5 mg/kg daily oral, Day 1, group average)?
A: 30.8 g

Q: What about the Body weight ([1]; LDLr+/− mice, High Dose T2 2.5 mg/kg daily oral, Day 1, individual animal, 2.5 mg/kg, in g (unit assumed)) of the same compound?
A: 32.8 and 31.8 and 29.8 and 31.4 and 29.2 and 29.6

Q: And the Body weight (Ave) ([1]; LDLr+/− mice, High Dose T2 2.5 mg/kg daily oral, Day 2, group average)?
A: 31.3 g

Q: What about the Body weight ([1]; LDLr+/− mice, High Dose T2 2.5 mg/kg daily oral, Day 2, individual animal, 2.5 mg/kg, in g (unit assumed)) of the same compound?
A: 33.3 and 34.5 and 29.8 and 31.0 and 29.1 and 29.9

Q: And the Body weight (Ave) ([1]; LDLr+/− mice, High Dose T2 2.5 mg/kg daily oral, Day 3, group average)?
A: 31.1 g

Q: And the Body weight ([1]; LDLr+/− mice, High Dose T2 2.5 mg/kg daily oral, Day 3, individual animal, 2.5 mg/kg)?
A: 33.1 and 33.9 and 29.8 (2×) and 30.9 and 29.3

Q: What about the Body weight (Ave) ([1]; LDLr+/− mice, High Dose T2 2.5 mg/kg daily oral, Day 4, group average) of the same compound?
A: 29.8 g

Q: And the Body weight ([1]; LDLr+/− mice, High Dose T2 2.5 mg/kg daily oral, Day 4, individual animal, 2.5 mg/kg, in g (unit assumed))?
A: 32.1 and 33.0 and 29.0 and 30.1 and 27.9 and 26.8

Q: And the Body weight (Ave) ([1]; LDLr+/− mice, High Dose T2 2.5 mg/kg daily oral, Day 5, group average)?
A: 29.7 g

Q: And the Body weight ([1]; LDLr+/− mice, High Dose T2 2.5 mg/kg daily oral, Day 5, individual animal, 2.5 mg/kg, in g (unit assumed))?
A: 32.3 and 32.9 and 28.9 and 30.4 and 27.6 and 26.3

Q: And the Body weight (Ave) ([1]; LDLr+/− mice, Low Dose T2 0.25 mg/kg daily oral, Day 1, group average)?
A: 26.7 g

Q: What about the Body weight ([1]; LDLr+/− mice, Low Dose T2 0.25 mg/kg daily oral, Day 1, individual animal, 0.25 mg/kg, in g (unit assumed)) of the same compound?
A: 28.2 and 29.0 and 24.7 and 26.4 and 25.0 and 26.6

Q: And the Body weight (Ave) ([1]; LDLr+/− mice, Low Dose T2 0.25 mg/kg daily oral, Day 2, group average)?
A: 28.1 g

Q: What about the Body weight ([1]; LDLr+/− mice, Low Dose T2 0.25 mg/kg daily oral, Day 2, individual animal, 0.25 mg/kg, in g (unit assumed)) of the same compound?
A: 29.4 and 30.6 and 26.6 and 27.8 and 26.1 and 28.2

Q: And the Body weight (Ave) ([1]; LDLr+/− mice, Low Dose T2 0.25 mg/kg daily oral, Day 3, group average)?
A: 28.6 g

Q: What about the Body weight ([1]; LDLr+/− mice, Low Dose T2 0.25 mg/kg daily oral, Day 3, individual animal, 0.25 mg/kg, in g (unit assumed)) of the same compound?
A: 29.7 and 31.4 and 27.2 and 28.1 and 26.3 and 28.8

Q: And the Body weight (Ave) ([1]; LDLr+/− mice, Low Dose T2 0.25 mg/kg daily oral, Day 4, group average)?
A: 27.6 g

Q: What about the Body weight ([1]; LDLr+/− mice, Low Dose T2 0.25 mg/kg daily oral, Day 4, individual animal, 0.25 mg/kg, in g (unit assumed)) of the same compound?
A: 28.8 and 30.3 and 26.2 and 27.4 and 25.8 and 27.3

Q: And the Body weight (Ave) ([1]; LDLr+/− mice, Low Dose T2 0.25 mg/kg daily oral, Day 5, group average)?
A: 28.5 g

Q: And the Body weight ([1]; LDLr+/− mice, Low Dose T2 0.25 mg/kg daily oral, Day 5, individual animal, 0.25 mg/kg, in g (unit assumed))?
A: 29.5 and 31.3 and 27.3 and 28.4 and 26.6 and 27.9

Q: What about the Body weight (Ave) ([1]; LDLr+/− mice, Low Dose T2 0.25 mg/kg daily oral, Day 6, group average) of the same compound?
A: 29.2 g

Q: What about the Body weight ([1]; LDLr+/− mice, Low Dose T2 0.25 mg/kg daily oral, Day 6, individual animal, 0.25 mg/kg, in g (unit assumed)) of the same compound?
A: 30.7 and 32.4 and 28.5 and 29.1 and 26.7 and 27.9

Q: And the Body weight (Ave) ([1]; LDLr+/− mice, Low Dose T2 0.25 mg/kg daily oral, Day 7, group average)?
A: 30 g

Q: What about the Body weight ([1]; LDLr+/− mice, Low Dose T2 0.25 mg/kg daily oral, Day 7, individual animal, 0.25 mg/kg) of the same compound?
A: 31.0 and 32.7 and 29.6 (2×) and 28.2 and 29.0

Q: What about the “effect on weight gain” value ([1]; low and high dose T2, all genotypes) of the same compound?
A: did not affect

Q: And the “lowered cholesterol, average” value ([2]; C57 animals, high dose T2 2.5 mg/kg daily oral)?
A: about 67%

Q: And the “lowered cholesterol, average” value ([2]; C57 animals, low dose T2 0.25 mg/kg daily oral)?
A: about 38%

Q: What about the “Cholesterol (Ave)” value ([2]; C57 mice, 1 Week High Dose, T2 2.5 mg/kg daily oral) of the same compound?
A: 60.8

Q: What about the Cholesterol ([2]; C57 mice, 1 Week High Dose, T2 2.5 mg/kg daily oral, 2.5 mg/kg) of the same compound?
A: 41.312 and 53.718 and 75.711 and 62.741 and 70.636

Q: And the “Cholesterol (Ave)” value ([2]; C57 mice, 1 Week Low Dose, T2 0.25 mg/kg daily oral)?
A: 113.5

Q: What about the Cholesterol ([2]; C57 mice, 1 Week Low Dose, T2 0.25 mg/kg daily oral, 0.25 mg/kg) of the same compound?
A: 96.130 and 114.249 and 104.366 and 114.798 and 137.858

Q: What about the “Cholesterol (Ave)” value ([2]; LDLr0 mice (first group), 1 Week High Dose, T2 2.5 mg/kg daily oral) of the same compound?
A: 320.4

Q: And the Cholesterol ([2]; LDLr0 mice (first group), 1 Week High Dose, T2 2.5 mg/kg daily oral, 2.5 mg/kg)?
A: 303.529 and 337.364

Q: And the “Cholesterol (Ave)” value ([2]; LDLr0 mice (first group), 1 Week Low Dose, T2 0.25 mg/kg daily oral)?
A: 823.5

Q: What about the Cholesterol ([2]; LDLr0 mice (first group), 1 Week Low Dose, T2 0.25 mg/kg daily oral, 0.25 mg/kg) of the same compound?
A: 1063.848 and 593.252 and 813.532

Q: And the “Cholesterol (Ave)” value ([2]; LDLr0 mice (second group), 1 Week Low Dose, T2 0.25 mg/kg daily oral)?
A: 930.5

Q: What about the Cholesterol ([2]; LDLr0 mice (second group), 1 Week Low Dose, T2 0.25 mg/kg daily oral, 0.25 mg/kg) of the same compound?
A: 611.760 and 750.720 and 813.250 and 1112.010 and 1167.590 and 438.070 and 1000.840 and 1549.720

Q: And the “Cholesterol (Ave)” value ([2]; LDLr0 mice (second group), 2 Week Low Dose, T2 0.25 mg/kg daily oral)?
A: 1026.8

Q: And the Cholesterol ([2]; LDLr0 mice (second group), 2 Week Low Dose, T2 0.25 mg/kg daily oral, 0.25 mg/kg)?
A: 996.905 and 1035.325 and 944.755 and 988.670 and 1092.965 and 524.830 and 1189.025 and 1441.530

Q: And the “lowered cholesterol, average” value ([2]; LDLr knockout animals, high dose T2 2.5 mg/kg daily oral)?
A: about 80%

Q: What about the “lowered cholesterol, average” value ([2]; LDLr knockout animals, low dose T2 0.25 mg/kg daily oral) of the same compound?
A: about 46%

Q: What about the “lowered cholesterol, average” value ([2]; LDLr+/− animals, high dose T2 2.5 mg/kg daily oral) of the same compound?
A: about 67%

Q: What about the “lowered cholesterol, average” value ([2]; LDLr+/− animals, low dose T2 0.25 mg/kg daily oral) of the same compound?
A: about 26%

Q: And the “Cholesterol (Ave)” value ([2]; LDLr+/− mice, 1 Week High Dose, T2 2.5 mg/kg daily oral)?
A: 93.8

Q: What about the Cholesterol ([2]; LDLr+/− mice, 1 Week High Dose, T2 2.5 mg/kg daily oral, 2.5 mg/kg) of the same compound?
A: 84.169 and 99.395 and 103.342 and 102.778 and 66.124 and 107.29

Q: What about the “Cholesterol (Ave)” value ([2]; LDLr+/− mice, 1 Week Low Dose, T2 0.25 mg/kg daily oral) of the same compound?
A: 188.8

Q: What about the Cholesterol ([2]; LDLr+/− mice, 1 Week Low Dose, T2 0.25 mg/kg daily oral, 0.25 mg/kg) of the same compound?
A: 185.075 and 229.548 and 196.605 and 160.917 and 172.447 and 188.370

Q: What about the “less potent than T3 in decreasing TR β gene expression” value (TR β gene expression) of the same compound?
A: 50%

Q: What about the “decrease in body weight” value (rats; compared to controls) of the same compound?
A: 13%

Q: What about the “decrease in hepatic fat mass” value (rats; compared to controls) of the same compound?
A: 50%

Q: And the “increase in hepatic fat oxidation” value (rats; compared to controls)?
A: 42%

Q: What about the lowering of cholesterol (rats; compared to controls) of the same compound?
A: 18%

Q: What about the “lowering of serum triglycerides” value (rats; compared to controls) of the same compound?
A: 52%

Q: What about the “heart rate, thyroid gland or heart weight, TSH, free T3, free T4, TSH response to TRH” value (rats) of the same compound?
A: not accompanied by an increase in heart rate
